{
  "source": "patent US20260204362A1",
  "about": "“METHOD FOR DETERMINING A TARGET […] COMPOUND COMPRISING A TARGET BIODEGRADABILITY” (BASF SE, priority 2022, published 2026)",
  "origin": "cited, not measured here",
  "data": [
    {"details": "known values for test molecules from the NITE database; OECD 301 (A-F) test setups, measurement uncertainty ca. 10%", "units": {"Biodegradability (data) in %": "%"}, "values": [
      {"smiles": "CNCCS(=O)(=O)O", "note": "[CNCCS(═O)(═O)O]", "Biodegradability (data) in %": 62},
      {"smiles": "OCC=CCO", "note": "[OCC═CCO]", "Biodegradability (data) in %": 57},
      {"smiles": "CCC(CC)C(=O)OCCOCCOCCOC(=O)C(CC)CC", "note": "[CCC(CC)C(═O)OCCOCCOCCOC(═O)C(CC)CC]", "Biodegradability (data) in %": 81},
      {"smiles": "BrCCCCBr", "note": "[BrCCCCBr]", "Biodegradability (data) in %": 17},
      {"smiles": "CCCCN(CCCC)C(=S)[S][Ni][S]C(=S)N(CCCC)CCCC", "note": "[CCCCN(CCCC)C(═S)S[Ni]SC(═S)N(CCCC)CCCC]", "Biodegradability (data) in %": 3}
    ]}
  ]
}
